Measured values published in US20260085292A1, “MINIMAL ESSENTIAL MEDIA FOR THE CULTURE OF HUMAN INDUCED PLURIPOTENT STEM CELLS” (Northwestern University, priority 2022, published 2026).
Where a name gives a salt, the structure may show the parent alone. Read-outs that look alike come from different tables or passages of the source. Where a SMILES comes first, the peptide text is derived from it.

Tests used:
[1] = test system: hiPSC lines (19c3 and 23c1); assay: hiPSC growth titration assay: 1-5 passages in 12-well plates, then resazurin viability assay; conditions: for concentration required to maintain similar levels of proliferation: three-passage assay
Description: Each commercial medium was normalized to the DMEM/F12 levels of L-glutamine, D-glucose, sodium pyruvate, sodium bicarbonate, pH, and osmolarity (FIG. 1B). To assess the effect of basal medium on hiPSC growth, an assay was developed consisting of plating cells in 12-well plates, and growing cells for 4 days with daily medium changes, before passaging at a 1:20 ratio. This was completed for 1-5 passages followed by a cost-effective resazurin viability assay (FIG. 1C). […] This was chosen to minimize the effect of variance caused by repeated manual passaging and replating. At least two hiPSC lines were used in parallel throughout the titration process. Identified adjusted concentrations of each group, such as amino acids, was incorporated prior to beginning the next group, such as vitamins, to bring subsequent titrations as close to final formulation as possible. Once the initial full cycle of titration of all components was complete, a second full cycle of was performed to confirm the results in the final formulation. We also completed identical experiments without daily medium change to identify components and concentrations that support this protocol (FIGS. 3, 5, and 8), and to allow for development of a simplified hiPSC culture strategy.
(§1) Human induced pluripotent cell culture: BMEM consists of BMEM basal medium and BMEM supplement. […] These are added to ultrapure water and filter sterilized. BMEM supplement consists of 5 mg/mL E. coli-derived recombinant human insulin (Gibco), […] L-ascorbic acid 2-phosphate trisodium salt (AA2P, Wako), 5 mg/mL Oryza sat-iva-derived recombinant human transferrin (Optiferrin, InVitria), 20 ng/mL sodium selenite (Sigma), 40 ng/mL recombinant human FGF2-G3 (made in-house), 0.1 ng/mL recombinant human TGFb3 (E. coli-derived, Qkine), 0.1 ng/mL recombinant human NRG1 (E. coli-derived, Shenodoah Biotechnology). Cells were routinely maintained in this medium on 1:800 diluted growth factor reduced Matrigel (Corning) diluted in a BMEM basal at 2 mL per well of a 6-well plate or equivalent. Matrigel-coated plates were kept in CO2 incubators at 37° C. for up to 1 month. BMEM was supplemented with […] thiazovivin (LC Labs), hereafter referred to as BMEM-T, for the first 24 h after passage. For standard culture, cells were passaged at a ratio of 1:20 every 4 days using 0.5 mM EDTA (Invitrogen) diluted in DPBS^−/− (without Ca^2+ and Mg^2+, Corning), after achieving ˜70%-80% confluence. Cell lines were used between passages 20 and 100. Throughout, pH was adjusted immediately after making the medium at room temperature and atmospheric oxygen and carbon dioxide levels but before filter sterilization. pH was adjusted with 12 N HCl or 1 N NaOH (both from Fisher) and measured using a SevenCompact pH meter (MettlerToledo). Osmolarity was measured using an osmometer (Advanced Instruments).
Resazurin assay: Resazurin sodium salt (B21187.06, Thermo) was diluted to 5 mg/mL in sterile Milli-Q ultrapure water and 600 μL aliquots were made and stored at −20° C. One aliquot was added to 14.4 mL of water to generate a 10× stock. Stock was diluted in BMEM to 1×, and 1 mL was added to each well of a 12-well plate and incubated at 37° C. for 2.5 h. Plates were read on a Varioskan Lux (Thermo) in fluorescent mode using top read and an excitation wavelength of 560 nm and an emission wavelength of 590 nm.

[2] = 110 mM NaCl
Experimental: as §1, with “For standard culture, cells were passaged at a ratio of 1:20 every 4 days using 0.5 mM EDTA (Invitrogen) diluted in DPBS^−/− (without Ca^2+ and Mg^2+, Corning), after achieving ˜70%-80% confluence. Cell lines were used between passages 20 and 100.” left out

[3] = daily medium change, multi-passage assay, normalized to DMEM/F12

Row | Molecule | requirement of the component for hiPSC growth [1, 3] | suitable concentration compared with that in DMEM/F12 ([1]; titration, daily medium change) | further results
1 | O=C(O)CCCC[C@@H]1CCSS1 (racemic) [lipoic acid, Lipoic acid] | superfluous |  | 
2 | [Ca+2].[Cl-].[Cl-] [CaCl2, Calcium chloride (CaCl2)] |  | could be reduced | effect of low concentrations on hiPSCs ([1]; two-passage titration): reduced the adhesion of hiPSCs to the plates
3 | CC(C)(CO)[C@@H](O)C(=O)NCCC(=O)[O-].CC(C)(CO)[C@@H](O)C(=O)NCCC(=O)[O-].[Ca+2] [D-pantothenic acid, D-Pantothenic acid hemicalcium salt (B5)] |  | higher concentrations | 
4 | O=S(=O)(O)CCN1CCN(CCO)CC1 [HEPES] | superfluous |  | requirement of the component for hiPSC growth ([1]; no medium change): superfluous
5 | [Cl-].[K+] [KCl, Potassium chloride (KCl)] |  | could be reduced | 
6 | C[C@H](N)C(=O)N[C@@H](CCC(N)=O)C(=O)O [L-alanyl-L-glutamine] (H-Ala-Gln-OH) |  |  | hiPSC growth rate compared with glutamine at the suitable concentrations ([1]; 2 mM vs 1 mM glutamine, also with no medium change): no difference; concentration required to maintain similar levels of proliferation [1]: 2 mM
7 | O=S(=O)([O-])[O-].[Mg+2] [MgSO4, Magnesium sulfate (MgSO4)] |  | enhanced growth | 
8 | [Cl-].[Na+] [NaCl, Sodium chloride (NaCl)] |  |  | concentration suitable for hiPSC growth ([1]; NaCl titration in the presence of sodium bicarbonate, two-passage assay): 110 mM; osmolarity produced [2]: 295 mOsm/L
9 | CC(=O)C(=O)[O-].[Na+] [Sodium pyruvate] | essential | slightly higher concentration | 
10 | O.O.O.O.O.O.O.O=S(=O)([O-])[O-].[Zn+2] [Zinc, Zinc sulfate heptahydrate (ZnSO4•7H2O)] | not shown to be essential |  | improvement of hiPSC growth ([1]; two-passage assay): approximately 10%
11 | O=C(O)CCCC[C@@H]1SC[C@@H]2NC(=O)N[C@@H]21 [biotin, Biotin (B7)] |  | sufficient at concentrations lower than those in DMEM/F12 | 
12 | O.O.O.O.O.O=S(=O)([O-])[O-].[Cu+2] [copper, Copper(II) sulfate pentahydrate (CuSO4•5H2O)] | No advantage |  | concentration at which toxic to hiPSCs [1]: > 100 µM
13 | N[C@@H](CS)C(=O)O [cysteine, L-Cysteine HCl•H2O] | can replace the cystine and cysteine combination |  | 
14 | Nc1nc(=O)c2nc(CNc3ccc(C(=O)N[C@@H](CCC(=O)O)C(=O)O)cc3)cnc2[nH]1 [folic acid, Folic acid (B9)] |  | sufficient at concentrations lower than those in DMEM/F12 | 
15 | NC(=O)CC[C@H](N)C(=O)O [glutamine, L-Glutamine] |  | suitable at lower concentrations | concentration required to maintain similar levels of proliferation [1]: 1 mM
16 | NCC(=O)O [glycine, Glycine] |  |  | requirement of the component for hiPSC growth ([1]; no medium change): superfluous
17 | N[C@@H](Cc1c[nH]cn1)C(=O)O [histidine, L-Histidine HCl•H2O] |  | approximately suitable | 
18 | O=c1[nH]cnc2nc[nH]c12 [hypoxanthine, Hypoxanthine] | superfluous |  | 
19 | O.O.O.O.O.O.O.O.O.O=[N+]([O-])[O-].O=[N+]([O-])[O-].O=[N+]([O-])[O-].[Fe+3] [iron nitrate, Iron(III) nitrate nonahydrate (Fe(NO3)3•9H2O)] |  |  | toxicity to hiPSCs ([1]; concentration titration, two-passage assay): toxic at high concentrations

Row | Molecule | requirement of the component for hiPSC growth [1, 3] | suitable concentration compared with that in DMEM/F12 ([1]; titration, daily medium change) | further results
20 | O.O.O.O.O.O.O.O=S(=O)([O-])[O-].[Fe+2] [iron sulfate, Iron(II) sulfate heptahydrate (FeSO4•7H2O)] |  |  | toxicity to hiPSCs [1]: toxic at high concentrations
21 | CC(C)C[C@H](N)C(=O)O [leucine, L-Leucine] |  | approximately suitable | 
22 | CCCCC/C=C\C/C=C\CCCCCCCC(=O)O [linoleic acid, Linoleic acid] | superfluous |  | 
23 | Cl.NCCCC[C@H](N)C(=O)O [lysine, L-Lysine HCl] |  | approximately suitable | 
24 | CSCC[C@H](N)C(=O)O [methionine, L-Methionine] |  | approximately suitable | 
25 | O[C@H]1[C@H](O)[C@@H](O)[C@H](O)[C@@H](O)[C@H]1O [myoinositol, myo-Inositol] |  | higher concentrations | 
26 | NC(=O)c1cccnc1 [nicotinamide, Nicotinamide (B3)] |  | sufficient at concentrations lower than those in DMEM/F12 | 
27 | Cl.Cl.NCCCCN [putrescine, Putrescine dihydrochloride] | superfluous |  | 
28 | Cc1ncc(CO)c(CO)c1O [pyridoxine, Pyridoxine hydrochloride (B6)] |  | sufficient at concentrations lower than those in DMEM/F12 | 
29 | Cc1cc2nc3c(=O)[nH]c(=O)nc-3n(C[C@H](O)[C@H](O)[C@H](O)CO)c2cc1C [riboflavin, Riboflavin (B2)] |  | sufficient at concentrations lower than those in DMEM/F12 | 
30 | O=C([O-])O.[Na+] [sodium bicarbonate, Sodium bicarbonate (NaHCO3)] |  |  | concentration most suitable for hiPSC growth ([1]; pH normalized to 7.1): 22.5 mM
31 | O.O=P([O-])(O)O.[Na+] [sodium phosphate monobasic, Sodium phosphate monobasic monohydrate (NaH2PO4•H2O)] | superfluous |  | concentration at which essential ([1]; no medium change assay): around 2 mM
32 | Cc1ncc(C[n+]2csc(CCO)c2C)c(N)n1 [thiamine, Thiamine hydrochloride (B1)] | superfluous |  | requirement of the component for hiPSC growth ([1]; normoxic conditions (21% O2)): required
33 | C[C@@H](O)[C@H](N)C(=O)O [threonine, L-Threonine] |  | approximately suitable | 
34 | Cc1cn([C@H]2C[C@H](O)[C@@H](CO)O2)c(=O)[nH]c1=O [thymidine, Thymidine] | superfluous |  | 
35 | N[C@@H](Cc1c[nH]c2ccccc12)C(=O)O [tryptophan, L-Tryptophan] |  |  | suitable concentration relative to that in DMEM/F12 ([1]; titration, two-passage assay): ~4 fold
36 | N[C@@H](Cc1ccc(O)cc1)C(=O)O [tyrosine, L-Tyrosine disodium salt hydrate] |  | approximately suitable | 
37 | Iron | essential |  | 
